Where two headings read alike, the source gives them in different places. Numbered stars: 1 amine (or outer) side, 2 acyl side, 3 side chain; on linkers, the order of the positions; unused ones are H or OH. Bridge positions count the residues as written; N and C are the ends. Square brackets hold non-standard residues; d marks the D form. Peptide text beside a SMILES is read from it. * marks the point of attachment. TATA = O=C(CC[*:1])N1CN(C(=O)CC[*:2])CN(C(=O)CC[*:3])C1; X1 = O=C(O)CN1CCN(CC(=O)O)CCN([C@H](CCC(=O)*)C(=O)O)CC1; 1Nal = N[C@@H](Cc1cccc2ccccc12)C(=O)O; Hyp = O=C(O)[C@@H]1C[C@@H](O)CN1; hArg = N=C(N)NCCCC[C@H](N)C(=O)O; Met(O) = CS(=O)CC[C@H](N)C(=O)O; SeMet = C[Se]CC[C@H](N)C(=O)O; Nle = CCCC[C@H](N)C(=O)O
Tests used:
[1] = n-Octanol/PBS distribution coefficient (logD 7.4); format: physicochemical
Description: The determination of logD 7.4 was performed in triplicate. A sample of the ^64Cu/^68Ga-labeled compound containing ≈1 MBq in a volume of 1 μL was added to a 1.5 mL Eppendorf tube containing 400 μL of PBS (pH 7.4) and 400 μL of n-Octanol (the phases were presaturated with each other). The tube was vortexed vigorously for 1 min and then centrifuged at 16,100g for 4 min to separate the phases. For sampling from the aqueous phase, the pipette tip was discharged while passing through the octanol layer. Then, the sample was taken within the aqueous phase. Any residual liquid was carefully removed by moving the tip along the inner wall of an Eppendorf tube. The radioactivity in a defined volume of each layer was measured (ISOMED 2100). The distribution coefficient was expressed as the logarithm of the ratio of counts per minute (cpm) measured in the n-Octanol phase to the cpm measured in the PBS phase.

[2] = Oxidation stability in H2O2 (radio-HPLC)
Description: To avoid a too rapid degradation of radiolabeled peptides, a low H2O2 concentration of 0.0012% was chosen. […] In this context, there are three further thioether functionalities in each peptide due to the cyclization of the Cys residues with TATA. In Figure , the curves for the time-dependent degradation of the intact radioligands are depicted, from which the respective half-lives were calculated.
The stability toward oxidizing conditions was assessed with H2O2. For this purpose, the radioligands (2 nmol, 48 μL of labeling mixture) were treated with H2O2 (2 μL of 0.03%, final concentration of 0.0012%) at ambient temperature. At distinct time points (3, 5, and 7 h), an aliquot of 2 μL was withdrawn and diluted with 48 μL of a mixture named “Supersol,” which consists of 20% ethanol, 0.5% Triton X-100, 5 mM EDTA, 0.5 mM o-phenanthroline, and 0.1% saponin. […] The resulting solutions were analyzed by radio-HPLC (same system as that used for analyzing the ^64Cu-labelings).

[3] = Small animal PET/CT imaging; parameters: species or system mice; conditions: mouse, in vivo
Description: (§1) All animal experiments were performed following the protocols evaluated and approved by the Landesdirektion Sachsen, Referat 25 – Veterinärwesen, Lebensmittelüberwachung and Pharmazie (09105 Chemnitz, Germany, ethics approval number: 25-5131/562/52). HT-1376- and 5637-derived tumor xenograft models were established in NMRI nude mice (Rj: NMRI-Foxn1nu/nu, Charles River Laboratories, Sulzfeld, Germany) by subcutaneous injection of 5 × 10^6 cells in 100 μL of PBS containing 50% (v/v) Matrigel (Corning Life Sciences, Amsterdam, The Netherlands).
(§2) When the tumor volume reached 200 mm^3, PET experiments with radiotracers were performed. Radiolabeling of the ligands was performed as described previously with an apparent molar activity of 25 MBq/nmol. The radioligand stock solution (pH 6.5 – 7.5) was diluted in 0.9% NaCl, and 200 μL containing ∼9 MBq ([…]) was injected per mouse intravenously into a lateral tail vein. For blocking of target-specific radioligand binding, 75 nmol of blocking substance (1d) was administered simultaneously with the radioligand. Coincidences were recorded continuously in a 2 h PET-scan starting with the injection. Additionally, a CT scan was performed for anatomical referencing and attenuation correction. PET/CT imaging, reconstruction, and tissue delineation were carried out as described previously.

[4] = system: HT-1376-derived tumor xenograft model; assay: Small animal PET/CT imaging; parameters: species or system mice; conditions: mouse, in vivo
Description: as §1, §2

[5] = biological target: T1, recombinant human nectin-4 (Homo sapiens, UniProt Q96NY8); assay: FA-based competitive binding assay with probe 1a
T1 construct: close to the value determined for the complete extracellular domain of nectin-4 (0.94 nM); purchased R&D Systems 2659-N4
T1 sequence (Q96NY8 32-349 limits assumed): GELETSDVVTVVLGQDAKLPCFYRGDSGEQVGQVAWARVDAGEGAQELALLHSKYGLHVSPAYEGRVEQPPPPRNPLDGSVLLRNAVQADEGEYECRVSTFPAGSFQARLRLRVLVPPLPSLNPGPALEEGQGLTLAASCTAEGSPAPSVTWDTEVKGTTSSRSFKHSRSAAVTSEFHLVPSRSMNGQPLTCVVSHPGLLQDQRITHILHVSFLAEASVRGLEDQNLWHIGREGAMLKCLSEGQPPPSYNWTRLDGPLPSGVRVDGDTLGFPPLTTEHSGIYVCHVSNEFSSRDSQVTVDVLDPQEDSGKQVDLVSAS
Description: For the competitive binding assay, a constant concentration of probe 1a (1 nM) and of nectin-4 (20 nM) was used, and the concentration of the competitors was varied over at least 3 orders of magnitude. […] Analysis of the curves by nonlinear regression according to dose–response inhibition with variable slope, as implemented in GraphPad Prism (see Experimental section), provided the IC50 value for displacing the probe from nectin-4.
All measurements were conducted at 37 °C over 1200 s (interval of 37 s) using a Cytation 5 multimode microplate reader (BioTek Instruments, Software Gen 5) and black 96-well microplates (BRANDplates with F-bottom wells). Experiments were conducted at an excitation wavelength of 540 nm and an emission wavelength of 620 nm. The FA (r) was calculated by Gen 5 software from the measured parallel and perpendicular fluorescence intensities (I ∥ and I ⊥, respectively) according to eq using a G factor of 0.87 (preset value). r=I∥−G×I⊥/I∥+2G×I⊥ 1
All further data analyses were conducted with GraphPad Prism (version 10.4.1, GraphPad Software, San Diego, CA, USA). The assay mixture (100 μL) contained an aqueous solution (99 μL) and DMSO (1%, v/v, 1 μL).
For the competitive binding assay, fixed concentrations of probe 1a (1 nM) and recombinant human nectin-4 (20 nM) and 10 concentrations of nonlabeled peptide (e.g., […] prepared as serial 1:1 dilution) were used (two separate experiments, each performed in duplicate). The corresponding stock solutions of 1a (2.5 nM) and nectin-4 (50 nM) were prepared in HEPES buffer, while the stock solutions of the nonlabeled peptides were prepared in 5% DMSO/HEPES buffer. nectin-4 (40 μL) and 1a (40 μL) were added to the wells, and the competition was started by the addition of the nonlabeled peptides (20 μL). The FA values were averaged over the time period of 1200 s, and plots of FA = f([peptide]) were analyzed by nonlinear regression according to the model “[inhibitor] vs. response – Variable slope (four parameters)” as implemented in GraphPad Prism. […] Therefore, the lower FA plateau was constrained to the FA value of probe 1a in the absence of nectin-4 and the competitor, which was recorded in each experiment.

Compound	logD ([1]; pH 7.4, logD 7.4)	half-life [2] [min]	half-life ([3]; Blood half life fast [min]) [min]	half-life ([3]; Blood half life slow [min]) [min]	Percent fast [%] [4] [%]	body retention at 2 h p.i. [4] [%]	kidney uptake (SUVmean) at 2 h p.i. [4]	time of highest tumor uptake [4]	logD ([1]; ^64Cu-labeled ligand, n-octanol/PBS pH 7.4, ±SD, read-out: logD 7.4)	half-life ([2]; half-life of intact radiolabeled peptide (T1/2), 0.0012% H2O2, 25 °C, one-phase decay) [min]	half-life ([2]; half-life of intact radiolabeled peptide, 0.0012% H2O2) [min]	fold lower binding affinity compared to 1e ([5]; FA K d ratio) [fold]	Hill coefficient n ([5]; competitive binding curve, variable slope)
CCCC[C@@H]1NC(=O)[C@@H]2CSCCC(=O)N3CN(CN(C3)C(=O)CCSC[C@H](NC(=O)CC[C@H](C(=O)O)N3CCN(CC(=O)O)CCN(CC(=O)O)CC3)C(=O)N3CCC[C@H]3C(=O)N[C@@H](Cc3cccc4ccccc34)C(=O)N[C@H](CC(=O)O)C(=O)N2)C(=O)CCSC[C@@H](C(N)=O)NC(=O)[C@H](Cc2c[nH]c3ccccc23)NC(=O)[C@@H]2C[C@@H](O)CN2C(=O)[C@@H]2CCCN2C(=O)[C@H]([C@@H](C)O)NC(=O)[C@H](CO)NC(=O)[C@H](Cc2c[nH]c3ccccc23)NC(=O)[C@H](CC(=O)O)NC(=O)[C@H](CCCCNC(=N)N)NC1=O [[^64Cu]Cu-3a, metal not drawn] (X1-CP[1Nal][dD]C[Nle][hArg]DWSTP[Hyp]WC-NH2; linker 1-5-15 via TATA)	-2.53	1040	1.24 ± 0.15	38.2 ± 2.68	85.43 ±1.50	70	25	≈ 6 min	–	–	–	–	–
C[Se]CC[C@@H]1NC(=O)[C@@H]2CSCCC(=O)N3CN(CN(C3)C(=O)CCSC[C@H](NC(=O)CC[C@H](C(=O)O)N3CCN(CC(=O)O)CCN(CC(=O)O)CC3)C(=O)N3CCC[C@H]3C(=O)N[C@@H](Cc3cccc4ccccc34)C(=O)N[C@H](CC(=O)O)C(=O)N2)C(=O)CCSC[C@@H](C(N)=O)NC(=O)[C@H](Cc2c[nH]c3ccccc23)NC(=O)[C@@H]2C[C@@H](O)CN2C(=O)[C@@H]2CCCN2C(=O)[C@H]([C@@H](C)O)NC(=O)[C@H](CO)NC(=O)[C@H](Cc2c[nH]c3ccccc23)NC(=O)[C@H](CC(=O)O)NC(=O)[C@H](CCCCNC(=N)N)NC1=O [[^64Cu]Cu-5, metal not drawn] (X1-CP[1Nal][dD]C[SeMet][hArg]DWSTP[Hyp]WC-NH2; linker 1-5-15 via TATA)	–	–	–	–	–	–	–	–	-2.37	22.8	23	–	–
C[C@@H](O)[C@@H]1NC(=O)[C@H](CO)NC(=O)[C@H](Cc2c[nH]c3ccccc23)NC(=O)[C@H](CC(=O)O)NC(=O)[C@H](CCCCNC(=N)N)NC(=O)[C@H](CC[S+](C)[O-])NC(=O)[C@@H]2CSCCC(=O)N3CN(CN(C3)C(=O)CCSC[C@H](NC(=O)CC[C@H](C(=O)O)N3CCN(CC(=O)O)CCN(CC(=O)O)CC3)C(=O)N3CCC[C@H]3C(=O)N[C@@H](Cc3cccc4ccccc34)C(=O)N[C@H](CC(=O)O)C(=O)N2)C(=O)CCSC[C@@H](C(N)=O)NC(=O)[C@H](Cc2c[nH]c3ccccc23)NC(=O)[C@@H]2C[C@@H](O)CN2C(=O)[C@@H]2CCCN2C1=O (some centres unmarked) [compound 2] (X1-CP[1Nal][dD]C[Met(O)][hArg]DWSTP[Hyp]WC-NH2; linker 1-5-15 via TATA)	-2.51	–	–	–	–	–	–	–	–	–	–	34	1.07
